pEC50: −log10 of the molar value.
How the values were obtained:
Test in all cases: microbe, parasite or virus in culture
Assay type in all cases: cell-based
[1] = system: clinically isolated HIV strain A-2-001; details: Human immunodeficiency virus 1, 72 h, read-out: EC50, Virus Strains A-2-001
Description: (§1) The compounds were tested in a cellular assay using the MT4-LTR-EGFP cells for anti-viral activity. […] Because of the increasing emergence of drug resistant HIV strains, the present compounds were tested for their potency against clinically isolated HIV strains harboring several mutations. […] The viral strains A, B, C and D contain mutations as indicated below in Table 2.
(§2) The cellular assay was performed according to the following procedure. HIV- or mock-infected MT4-LTR-EGFP cells were incubated for three days in the presence of various concentrations of the compounds according to the invention. Upon infection, the viral tat protein activates the GFP reporter. At the end of the incubation period, the GFP signal was measured. […] The inhibitory activity of the compound was monitored on the virus-infected cells and was expressed as EC50. These values represent the amount of the compound required to protect 50% of the cells from virus infection.

[2] = system: clinically isolated HIV strain B-2-001; details: Human immunodeficiency virus 1, 72 h, read-out: EC50, Virus Strains B-2-001
Description: as §1, §2

[3] = system: clinically isolated HIV strain C-2-001; details: Human immunodeficiency virus 1, 72 h, read-out: EC50, Virus Strains C-2-001
Description: as §1, §2

[4] = system: clinically isolated HIV strain D-2-001; details: Human immunodeficiency virus 1, 72 h, read-out: EC50, Virus Strains D-2-001
Description: as §1, §2

[5] = system: wild type laboratory HIV strain (WT IIIB-2-001); details: Human immunodeficiency virus 1, IIIB, 72 h, read-out: EC50, Virus Strains WT IIIB-2-001
Description: as §1, §2

Row | SMILES | pEC50 [1] | pEC50 [2] | pEC50 [3] | pEC50 [4] | pEC50 [5]
1 | CC(C)CN(CC(O)C(Cc1ccccc1)NC(=O)OC1COC2OCCC12)S(=O)(=O)c1ccc(N)c(NCc2ccc(F)cc2F)c1 (stereo not shown) [Compound 78, (3-{[4-amino-3-(2,4-difluoro-benzylamino)-benzenesulfonyl]-isobutyl-amino}-1-benzyl-2-hydroxy-propyl)-carbamic acid hexahydro-furo[2,3-b]furan-3-yl ester] | 9.21 | 6.87 | 8.00 | 7.45 | 8.44
2 | CC(C)CN(C[C@@H](O)[C@H](Cc1ccccc1)NC(=O)O[C@H]1CO[C@H]2OCC[C@H]21)S(=O)(=O)c1ccc(N)c(NCc2ccccn2)c1 [Compound 80, [3-({4-amino-3-[(pyridin-2-ylmethyl)-amino]-benzenesulfonyl}-isobutyl-amino)-1-benzyl-2-hydroxy-propyl]-carbamic acid hexahydro-furo[2,3-b]furan-3-yl ester] | 8.83 | 7.03 | 7.84 | 7.41 | 8.05

Source: patent US8084494B2, “Substituted aminophenylsulfonamide compounds as HIV protease inhibitor” (priority 2005, dated 2011)
